# Test results taken from PMC4317219 (Pharmacology Research & Perspectives, 2014).
# What was measured:
# [1] = biological target: mouse D2R-long form (mD2LR) (Mus musculus, UniProt P61168); experiment: cell-based
# [2] = system: Sprague-Dawley rats, i.c.v. ouabain-induced hyperactivity; experiment: Ouabain-induced hyperactivity; assay type: in vivo, rat; conditions: acute; cariprazine 1.0 mg/kg i.p. aCSF vs. saline aCSF (no ouabain); P < 0.05
# [3] = cited from earlier work
# [4] = after an i.p. injection, ref [1976]
# Chain of mouse D2R-long form (mD2LR) (P61168 whole entry): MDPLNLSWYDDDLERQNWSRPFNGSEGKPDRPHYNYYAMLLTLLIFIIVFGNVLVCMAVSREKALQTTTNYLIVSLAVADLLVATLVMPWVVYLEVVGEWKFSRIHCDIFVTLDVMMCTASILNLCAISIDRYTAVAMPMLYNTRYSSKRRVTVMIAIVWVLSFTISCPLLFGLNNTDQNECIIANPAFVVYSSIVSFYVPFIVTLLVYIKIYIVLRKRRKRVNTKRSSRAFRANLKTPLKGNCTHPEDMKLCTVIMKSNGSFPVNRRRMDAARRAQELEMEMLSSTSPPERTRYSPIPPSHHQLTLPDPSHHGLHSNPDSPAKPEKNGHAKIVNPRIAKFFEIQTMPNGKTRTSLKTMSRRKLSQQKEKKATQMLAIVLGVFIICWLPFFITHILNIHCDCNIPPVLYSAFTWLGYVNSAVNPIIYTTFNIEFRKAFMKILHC
Structure (SMILES),EC50 [1] [nM],sedation: inhibition of open field activity [2] [%],"lithium levels achieved in the rats ([3]; 6.75 mEq/kg i.p. then 2.4 g/kg of food for 7 days, ref [2003]) [mmol/L]","time to maximum brain levels [3, 4] [h]","time to maximum serum level [3, 4] [h]"
CN(C)C(=O)N[C@H]1CC[C@H](CCN2CCN(c3cccc(Cl)c3Cl)CC2)CC1 [Cariprazine],1.4 ± 0.1,72,–,–,–
[Li] [lithium],–,–,1.01 ± 0.18,≤ 8,≤ 0.5
